Laboratory results published in US20200179308A1, “USE OF ISOHUMULONES AND DERIVATIVES THEREOF TO TREAT POLYCYSTIC OVARY SYNDROME” (KINDEX PHARMACEUTICALS, INC., priority 2017, published 2020).
Values joined by “and” are separate entries in the source; they are usually repeats but may differ in a detail not shown here. Equal entries are not always repeated. “Also recorded” adds a separate entry of the source.

Tests used:
Format in all cases: in vivo
DIO female mice [1] = assay: Insulin tolerance test (ITT), whole body insulin sensitivity
Description: (§1) To begin to assess the effects of drug treatment on glucose metabolism in female DIO mice, IP-glucose tolerance test (IP-GTT) was performed. One month after drug treatment, mice were tested for glucose tolerance by IP-GTT. The mice were fasted overnight for 16 hours, blood was drawn through the tail vein and baseline blood glucose was measured using a OneTouch Ultra glucometer. 20% dextrose was injected IP (2 g/kg body weight). Sample blood glucose was measured at 15, 30, 60, 90 and 120 minutes. One week after IP-GTT, the mice were tested for whole body insulin sensitivity by insulin tolerance test (ITT). Mice were fasted for seven hours, blood was drawn through the tail vein and baseline blood glucose was measured as above. 0.3 units/kg insulin was injected IP. Blood glucose of each mouse were measured at 15, 30, 60, 90 and 120 minutes. Area under the curve (AUC) was calculated for both the IP-GTT and the ITT.

DIO female mice [2] = assay: IP-glucose tolerance test (IP-GTT); conditions: one month after drug treatment, relative to VEH
Description: as §1

DIO female mice [3] = assay: Liver lipid accumulation, H&E staining quantified with ImageJ
Description: Liver tissues were collected and placed immediately in 10% formalin. 5 μm sections of tissue were stained with H&E by the Johns Hopkins Molecular and Comparative Pathobiology Phenotyping Core. Quantification of the area of fat in liver tissue was measured with NIH imageJ software and compared across groups.

DIO female mice [4] = assay: Fasting serum insulin, leptin and IL-6 by Luminex assay; conditions: between VEH, KDT501 and PIO groups
Description: (§2) To measure serum levels of LH, FSH, insulin, and leptin, serum samples were collected from mice via mandibular bleed. Mice were fasted overnight, and insulin or saline was injected IP according to the body weight of the mice (0.3 units/kg). Samples were obtained between 9:00 and 10:00 am on diestrus for baseline LH and FSH so as to avoid cycle dependent LH surges that occur in the late afternoon on the evening of proestrus. Rodent morning LH levels are not thought to vary in a cycle dependent manner (Helena et al. 2006). For fasting measurements of insulin, samples were also obtained between 9:00 and 10:00 am. Tissues were collected 10 minutes after insulin injection and snap-frozen in liquid nitrogen. Protein was obtained and measured as described previously (Brothers et al. 2010). To quantify the levels of phosphorylated AKT (pAKT), and AKT for different tissues of each individual animal after insulin or saline injection, Bio-Plex Phosphoprotein Detection Multiplex assays were used (Bio-Rad Laboratories, Hercules, Calif.). Protein ([…]) from each tissue was loaded into a 96-well microplate. Assays were conducted using the Luminex 200 system. Values were assessed as mean fluorescent intensity of phospho-specific signal. Serum was analyzed on a Luminex 20015 platform using the Milliplex Map mouse pituitary panel (LH/FSH) and a Milliplex mouse metabolic panel (insulin/leptin; Millipore, Billerica, Mass., USA). The assay detection limit for LH was 0.0019 ng/mL; for FSH, 0.0095 ng/mL; for insulin, 13.0 pg/mL; and for leptin, 4.2 pg/mL. Serum Testosterone was measured by radioimmunoassay at the University of Virginia Ligand Assay Core.

DIO female mice [5] = assay: Serum pituitary gonadotropin (LH, FSH) levels, Luminex Milliplex mouse pituitary panel; conditions: KDT501 100 mg/kg, PIO 30 mg/kg oral once a day, compared to VEH
Description: as §2

DIO female mice [6] = assay: Estrous cyclicity by vaginal cytology over 15 consecutive days; conditions: for percent of mice acyclic (did not complete even 1 complete estrous cycle): 15 day period beginning 10 days after treatment
Description: Diet-induced obesity has been reported to impair estrous cyclicity in female mice (Brothers et al., Wu et al.). In these studies, DIO females were treated with KDT501, PIO or VEH beginning 8 weeks after change to high fat diet. Mice were assessed for estrous cycle stage for 15 consecutive days beginning 10 days after drug/VEH treatment. Vaginal cytology was assessed daily between 9 and 10 am for 15 consecutive days beginning the 10th days after drug treatment. Vaginal cells were collected via saline lavage and then fixed with 100% ethanol and stained with the DIFF Quick Stain Kit (IMEB Inc., San Marcos, Calif., USA). Stages were assessed based on vaginal cytology (Nelson et al. 1982): predominant cornified epithelium indicated the estrus stage, predominant nucleated cells indicated the proestrus stage, both cornified and leukocytes indicated the metestrus stage, and predominant leukocytes indicated the diestrus stage. The percentage of mice at each different cycle stage in each group was calculated.

[7] = Weight gain on high fat diet in DIO female mice; conditions: female mice on 60% HFD; oral once a day; KDT501 100 mg/kg, PIO 30 mg/kg; compared to VEH
Description: To generate DIO mice, 7 week old female mice on a mixed strain background (129SvJ, C57B16, CD1) were placed and maintained on a high fat diet (HFD) for 8 weeks prior to study and throughout the course of study. The high fat diet consisted of 60% Kcal from fat with an energy density of 5.24 kcal/gm (D12492, Research Diets, Inc., New Brunswick, N.J., USA).
Wood chip bedding was maintained in these cages so that mice would not supplement their diet by eating the standard corncob bedding. Mice were weighed every week. The regular chow diet (Tekland Global 18% protein diet) was 24% Kcal from protein, 58% Kcal from carbohydrate, and 18% Kcal from fat with an energy density of 3.1 kcal/g (Harlan Laboratories, Indianapolis, Ind., USA). All procedures were performed with approval by the Johns Hopkins Animal Care and Use Committee under standard light and dark cycles.
At 80 days after introduction to high fat diet, the test compounds were administered orally to the mice once a day. […]
Female mice fed a high fat diet (60% calories from fat) gained approximately 4 grams of weight during the 8 week study period (FIG. 1). […] All data were analyzed with using Prism Software 5 GraphPad Software (La Jolla, CA) and are expressed as means ±SEM. Significance was determined via unpaired two- tailed Student t-test, one- or two-way ANOVA with the appropriate post-hoc tests. […]

[8] = 15 day period, KDT501 100 mg/kg, PIO 30 mg/kg

SMILES	insulin sensitivity, ITT area under the curve (AUC) (DIO female mice [1]; 0.3 units/kg insulin IP, relative to VEH)	fasting glucose levels (7 hrs fasting) (DIO female mice [1]; before insulin injection, compared to VEH controls)	glucose tolerance (blood glucose after IP dextrose) (DIO female mice [2]; 16 h fast, 2 g/kg dextrose IP)	glucose tolerance, IP-GTT area under the curve (AUC) (DIO female mice [2])	fat / lipid accumulation in liver, KDT501 versus PIO (DIO female mice [3]; KDT501 100 mg/kg compared to PIO 30 mg/kg)	fat / lipid accumulation in liver (DIO female mice [3]; KDT501 100 mg/kg, PIO 30 mg/kg, relative to VEH)	fasting serum IL-6 level (DIO female mice [4])	fasting serum insulin level (DIO female mice [4])	fasting serum leptin level (DIO female mice [4])	morning serum FSH level (DIO female mice [5])	morning serum LH level (DIO female mice [5])	ratio of LH/FSH (DIO female mice [5])	percent of mice acyclic (did not complete even 1 complete estrous cycle) (DIO female mice [6]; KDT501 100 mg/kg, PIO 30 mg/kg)	percentage of mice that completed 3 complete estrous cycles (DIO female mice [6]; [8])	percentage of mice that had (at least) two complete estrous cycles (DIO female mice [6]; [8])	percentage of mice that had one complete estrous cycle (DIO female mice [6]; [8])	number of complete estrous cycles per mouse (DIO female mice [6]; 15 days of analysis, compared to VEH)	weight gain (Δ weight from week 0) over the 8 week study period [7]
CC(C)CCC(=O)[C@@]1(O)C([O-])=C(C(=O)CC(C)C)C(=O)[C@@H]1CCC(C)C.[K+] [KDT501, Potassium salt of (+)-KDT500]	improved insulin sensitivity	lower fasting glucose levels	improved glucose tolerance	significant improvement in glucose tolerance	significantly less lipid accumulation; also recorded: significantly less fat	significantly less lipid accumulation; also recorded: significant reduction in fat	not significantly different; also recorded: No significant differences	not significantly different; also recorded: No significant differences	not significantly different; also recorded: No significant differences	not significantly altered	not significantly altered	no significant difference	7.1%	20%	60%	Roughly an even percentage	significantly more complete estrous cycles; also recorded: significant increase in number of cycles/mouse	no weight gain; also recorded: attenuated weight gain
CCc1ccc(CCOc2ccc(CC3SC(=O)NC3=O)cc2)nc1 (stereo not drawn) [PIO, Pioglitazone, reference compound]													20%	21% and 28%	25-28%			
